In patent US20250215017A1, “TGF-ß INHIBITOR COMPOUND AND USE THEROF” (Medinno Pharmaceutical Technology (Zhuhai) Co., Ltd., priority 2022, published 2025):

molecular target: human TGFβR1 (Homo sapiens (Human), UniProt P36897); assay: ADP-Glo kinase activity assay: TGFβR1 phosphorylates TGFβR1tide; type: biochemical; conditions: ATP 5 uM, TGFβR1 0.5 ng/ul, TGFβR1tide 0.1 ug/ul, 60 minutes at room temperature
Procedure: The principle of the activity assay was that TGFβR1 phosphorylates the substrate TGFβR1tide, consuming ATP in the process. This experiment employed the ADP-Glo method to detect kinase activity and determine the IC50 value, which was used to evaluate the inhibitory ability of the test compounds against human TGFβR1. In the experiment, DSM was used as a negative control, and LY364947 was used as a positive control. The specific experimental steps were as follows. Compounds were diluted 4-fold in DMSO in a dilution plate, with the final starting concentration of the compounds being 10 μM, across 10 concentration gradient points. The compounds were then further diluted 50-fold into the kinase reaction buffer and incubated on a shaker for 20 minutes. Kinase was formulated with an enzyme reaction buffer. 2 μl kinase was added to each well of the reaction plate. 1 μl of the compound diluted in buffer was added to each well, and then the plate was sealed with a sealing membrane and centrifuged at 1000 g for 30 seconds, leaving it at room temperature for 10 minutes. Solutions of TGFβR1tide and ATP were prepared with the kinase reaction buffer, and 2 μL of the TGFβR1tide/ATP solution was added to the reaction plate. The plate was sealed with a sealing film and centrifuged at 1000 g for 30 seconds. It was allowed to react at room temperature for 60 minutes. Subsequently, 4 μL of ADP-Glo was transferred to a 384-well reaction plate and centrifuged at 1000 rpm/min for 1 minute, followed by incubation at 25° C. for 40 minutes. Then, 8 μL of Detection solution was transferred to the 384-well reaction plate and centrifuged at 1000 rpm/min for 1 minute, after which it was incubated at 25° C. for 40 minutes. The RLU (Relative Luminescence Unit) signal was read using a BMG microplate reader, which was used to characterize the degree of kinase activity.
3.1 The inhibition rate was calculated as follows: inhibition rate of compound (% inh)=100%−(compound−positive control)/(negative control−positive control)*100%.
The IC50 (half inhibition concentration) of a compound was obtained using the following non-linear fitting equation, wherein data analysis was performed using Graphpad 7.0 software.
• 3.3.1 After an experimenter completed the report writing, another experimenter conducted a second inspection to ensure the accuracy of data analysis. • 3.3.2 Data were exported from BMG and analyzed manually. • 3.3.2.1 The ratios were converted to inhibition rates and IC50 was calculated by Prism GraphPad 7.0 from the inhibition rates. • 3.3.2.2 IC50 was calculated again by the ratios to verify accuracy of the results.

Chain of human TGFβR1 (P36897 34-503): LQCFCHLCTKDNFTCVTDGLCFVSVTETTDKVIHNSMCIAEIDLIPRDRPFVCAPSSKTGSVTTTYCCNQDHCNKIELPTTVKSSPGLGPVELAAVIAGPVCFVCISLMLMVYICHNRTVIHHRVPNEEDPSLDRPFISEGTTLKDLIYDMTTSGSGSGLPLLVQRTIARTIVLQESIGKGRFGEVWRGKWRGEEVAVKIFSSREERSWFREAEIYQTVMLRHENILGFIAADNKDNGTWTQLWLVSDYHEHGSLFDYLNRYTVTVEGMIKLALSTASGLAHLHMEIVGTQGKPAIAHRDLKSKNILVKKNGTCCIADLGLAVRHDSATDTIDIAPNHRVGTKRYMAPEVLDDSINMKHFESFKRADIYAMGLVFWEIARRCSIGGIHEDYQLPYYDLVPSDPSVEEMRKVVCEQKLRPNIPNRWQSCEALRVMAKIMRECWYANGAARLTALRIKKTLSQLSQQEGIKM

SMILES	IC50 [nM]
Cc1cccc(-c2nc3n(c2-c2ccnc(-c4nc5c([nH]4)CNC5)c2)CC2CC32)n1 (stereo not drawn) [Compound 8, 2-(6-Methylpyridin-2-yl)-3-(2-(1,4,5,6-tetrahydropyrrolo[3,4-d]imidazol-2-yl)pyridin-4-yl)-5,5a,6,6a-tetrahydrocyclopropane[3,4]pyrrolo[1,2-a]imidazole]	22
Cc1cccc(-c2nc3n(c2-c2ccc4ncoc4c2)CC2CC32)n1 (stereo not drawn) [Compound 20, 6-(2-(6-Methylpyridin-2-yl)-5,5a,6,6a-tetrahydrocyclopropane[3,4]pyrrolo[1,2-a]imidazol-3-yl)benzo[d]oxazole]	38
Cc1cccc(-c2nc3n(c2-c2ccc4[nH]ncc4c2)CC2CC32)n1 (stereo not drawn) [Compound 5, 3-(1H-Indazol-5-yl)-2-(6-methylpyridin-2-yl)-5,5a,6,6a-tetrahydrocyclopropane[3,4]pyrrolo[1,2-a]imidazole]	15
Cc1cccc(-c2nc3n(c2-c2ccn4nccc4c2)CC2CC32)n1 (stereo not drawn) [Compound 36, 2-(6-Methylpyridin-2-yl)-3-(pyrazolo[1,5-a]pyridin-5-yl)-5,5a,6,6a-tetrahydrocyclopropyl[3,4]pyrrolo[1,2-a]imidazole]	13
Cc1cccc(-c2nc3n(c2-c2ccc4nccn4c2)CC2CC32)n1 (stereo not drawn) [Compound 19, 3-(Imidazolo[1,2-a]pyridin-6-yl)-2-(6-methylpyrridin-2-yl)-5,5a,6,6a-tetrahydrocyclopropane[3,4]pyrrolo[1,2-a]imidazole]	50

The next compounds have a lower IC50 than those just listed; values first:

IC50 [nM]	SMILES
12	Cc1cccc(-c2nc3n(c2-c2ccc4nc[nH]c4c2)CC2CC32)n1 (stereo not drawn) [Compound 35, 3-(1H-Benzo[d]imidazol-6-yl)-2-(6-methylpyridin-2-yl)-5,5a,6,6a-tetrahydrocyclopropyl[3,4]pyrrolo[1,2-a]imidazole]
6	Cc1cccc(-c2nc3n(c2-c2ccc4ncsc4c2)CC2CC32)n1 (stereo not drawn) [Compound 21, 6-(2-(6-Methylpyridin-2-yl)-5,5a,6,6a-tetrahydrocyclopropane[3,4]pyrrolo[1,2-a]imidazol-3-yl)benzo[d]thiazole]
5.6	Cc1cccc(-c2nc3n(c2-c2ccc4ncnn4c2)CC2CC32)n1 (stereo not drawn) [Compound 18, 3-([1,2,4]Triazolyl[1,5-a]pyridin-6-yl)-2-(6-methylpyridin-2-yl)-5,5a,6,6a-tetrahydrocyclopropane[3,4]pyrrolo[1,2-a]imidazole]
4.9	Cc1cccc(-c2nc3n(c2-c2ccc4ncn(C)c4c2)CC2CC32)n1 (stereo not drawn) [Compound 16, 3-(1-Methyl-1H-benzo[d]imidazol-6-yl)-2-(6-methylpyridin-2-yl)-5,5a,6,6a-tetrahydrocyclopropane[3,4]pyrrolo[1,2-a]imidazole]
